Source: patent publication US7803793B2, “Heterocyclic derived metalloprotease inhibitors” (Janssen Pharmaceutica NV, priority 2006, dated 2010)

Experiments:
all MMPs tested = conditions: read-out: IC50's on all MMPs tested; cited from earlier work
MMP-2 = target: T1, MMP-2 (Homo sapiens, UniProt P08253); assay: MMP enzymatic assay (Trupoint peptide), MMP-2; format: biochemical; conditions: read-out: MMP-2 nM IC50
T1 construct: Human MMP-2 full length (aa 1-660)
T1 sequence (P08253 30-660): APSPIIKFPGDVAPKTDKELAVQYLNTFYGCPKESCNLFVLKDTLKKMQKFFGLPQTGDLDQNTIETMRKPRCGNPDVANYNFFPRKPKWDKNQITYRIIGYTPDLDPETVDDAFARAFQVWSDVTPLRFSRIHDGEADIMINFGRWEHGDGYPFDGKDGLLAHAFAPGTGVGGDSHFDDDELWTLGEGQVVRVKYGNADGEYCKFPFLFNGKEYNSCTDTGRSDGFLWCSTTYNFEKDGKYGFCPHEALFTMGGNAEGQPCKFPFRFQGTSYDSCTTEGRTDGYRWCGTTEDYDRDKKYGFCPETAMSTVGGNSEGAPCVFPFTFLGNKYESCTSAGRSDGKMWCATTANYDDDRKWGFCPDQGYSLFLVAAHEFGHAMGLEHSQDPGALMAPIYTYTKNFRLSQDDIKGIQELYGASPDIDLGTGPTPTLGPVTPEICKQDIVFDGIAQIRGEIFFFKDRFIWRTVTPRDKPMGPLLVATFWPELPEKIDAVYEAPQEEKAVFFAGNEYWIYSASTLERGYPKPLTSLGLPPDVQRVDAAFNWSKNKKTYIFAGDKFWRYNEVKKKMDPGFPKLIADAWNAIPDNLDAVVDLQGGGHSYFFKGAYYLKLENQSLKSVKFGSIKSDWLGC

MMP-9 = target: T2, MMP-9 (Homo sapiens, UniProt P14780); assay: MMP enzymatic assay (Trupoint peptide), MMP-9; format: biochemical
T2 construct: Human MMP-9 catalytic domain (aa 107-446)
T2 sequence (P14780 107-446): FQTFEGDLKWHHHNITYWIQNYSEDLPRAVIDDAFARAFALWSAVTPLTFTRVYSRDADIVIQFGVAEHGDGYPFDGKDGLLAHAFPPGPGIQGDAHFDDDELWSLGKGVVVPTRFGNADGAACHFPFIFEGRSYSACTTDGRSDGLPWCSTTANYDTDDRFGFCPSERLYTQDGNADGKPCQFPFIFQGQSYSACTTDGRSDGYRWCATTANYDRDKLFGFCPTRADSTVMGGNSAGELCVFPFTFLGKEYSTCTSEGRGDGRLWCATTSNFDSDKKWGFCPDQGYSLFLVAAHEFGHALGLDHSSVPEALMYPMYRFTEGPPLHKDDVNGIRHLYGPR

## CNC(=O)[C@H](Cc1c[nH]c2ccccc12)NC(=O)[C@H](Cc1ccccc1)C1OCCN(O)C1=O (stereo partly drawn)
All MMPs tested
  IC50: 20100 to 104000 nM

## N-(1-Hydroxy-2-oxo-1,2-dihydro-pyridin-3-yl)-N-methyl-4-p-tolyloxy-benzene-sulfonamide [Compound 26]
MMP-2
  IC50: 6.1 nM
MMP-9
  IC50: 3.4 nM
